Measurements published in the supplement of paper PMC10307832.

Tests used:
Experiment in all cases: relative viability (nuclei count vs DMSO), 5 days (fraction); higher = more cells survive
CAL-12T = test system: CAL-12T
Method in brief: (§1)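 Lung cancer cell lines, seeded in 1536-well plates, were treated the following day by pin tool with a single drug or with five library-drug doses (not always all listed) in √10 steps on top of a fixed anchor-drug dose. Cells were fixed and nuclei stained in one step after 5 days, and nuclei were counted. Relative viability is the nuclei count for treated wells divided by that for vehicle wells, reported as medians of duplicate plates.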

PC-3 [JPC-3] = test system: PC-3 [JPC-3]
Method in brief: as §1

BEN = test system: BEN
Method in brief: as §1

NCI-H441 = test system: NCI-H441
Method in brief: as §1

NCI-H661 = test system: NCI-H661
Method in brief: as §1

NCI-H1650 = test system: NCI-H1650
Method in brief: as §1

A-427 = test system: A-427
Method in brief: as §1

NCI-H2087 = test system: NCI-H2087
Method in brief: as §1

NCI-H520 = test system: NCI-H520
Method in brief: as §1

NCI-H1915 = test system: NCI-H1915
Method in brief: as §1

LC-2-ad = test system: LC-2-ad
Method in brief: as §1

201T = test system: 201T
Method in brief: as §1

CC(=O)O[C@@]12CO[C@@H]1C[C@H](O)[C@@]1(C)C(=O)[C@H](O)C3=C(C)[C@@H](OC(=O)[C@H](O)[C@@H](NC(=O)OC(C)(C)C)c4ccccc4)C[C@@](O)([C@@H](OC(=O)c4ccccc4)[C@H]21)C3(C)C [Docetaxel] + COc1cc2c(Oc3ccc(NC(=O)C4(C(=O)Nc5ccc(F)cc5)CC4)cc3F)ccnc2cc1OCCCN1CCOCC1 [Foretinib] (partner 0.25 µM)
relative viability (CAL-12T; first compound 0.006325 µM): 0.216 | relative viability (CAL-12T; first compound 0.02 µM): 0.163 | relative viability (PC-3 [JPC-3]; first compound 0.0002 µM): 0.962 | relative viability (PC-3 [JPC-3]; first compound 0.000632 µM): 0.945 | relative viability (PC-3 [JPC-3]; first compound 0.002 µM): 0.544 | relative viability (PC-3 [JPC-3]; first compound 0.006325 µM): 0.179 | relative viability (PC-3 [JPC-3]; first compound 0.02 µM): 0.149 | relative viability (BEN; first compound 0.0002 µM): 0.625 | relative viability (BEN; first compound 0.000632 µM): 0.926 | relative viability (BEN; first compound 0.002 µM): 0.606 | relative viability (BEN; first compound 0.006325 µM): 0.285 | relative viability (BEN; first compound 0.02 µM): 0.197 | relative viability (NCI-H441; first compound 0.0002 µM): 1.12 | relative viability (NCI-H441; first compound 0.000632 µM): 0.725 | relative viability (NCI-H441; first compound 0.002 µM): 0.538 | relative viability (NCI-H441; first compound 0.006325 µM): 0.87 | relative viability (NCI-H661; first compound 0.0002 µM): 0.989 | relative viability (NCI-H661; first compound 0.000632 µM): 1.02 | relative viability (NCI-H661; first compound 0.002 µM): 0.982 | relative viability (NCI-H661; first compound 0.006325 µM): 0.509 | relative viability (NCI-H661; first compound 0.02 µM): 0.496 | relative viability (NCI-H1650; first compound 0.0002 µM): 1.07 | relative viability (NCI-H1650; first compound 0.000632 µM): 0.598 | relative viability (NCI-H1650; first compound 0.006325 µM): 0.213 | relative viability (NCI-H1650; first compound 0.02 µM): 0.204 | relative viability (A-427; first compound 0.0002 µM): 1 | relative viability (A-427; first compound 0.000632 µM): 1.04 | relative viability (A-427; first compound 0.002 µM): 0.686 | relative viability (A-427; first compound 0.006325 µM): 0.261 | relative viability (A-427; first compound 0.02 µM): 0.176 | relative viability (NCI-H2087; first compound 0.0002 µM): 0.955 | relative viability (NCI-H2087; first compound 0.000632 µM): 0.477 | relative viability (NCI-H2087; first compound 0.002 µM): 0.249 | relative viability (NCI-H2087; first compound 0.006325 µM): 0.115 | relative viability (NCI-H2087; first compound 0.02 µM): 0.105 | relative viability (NCI-H520; first compound 0.0002 µM): 0.708 | relative viability (NCI-H520; first compound 0.000632 µM): 0.808 | relative viability (NCI-H520; first compound 0.002 µM): 0.341 | relative viability (NCI-H520; first compound 0.006325 µM): 0.218 | relative viability (NCI-H520; first compound 0.02 µM): 0.173 | relative viability (NCI-H1915; first compound 0.0002 µM): 1.15 | relative viability (NCI-H1915; first compound 0.000632 µM): 1.05 | relative viability (NCI-H1915; first compound 0.002 µM): 0.736 | relative viability (NCI-H1915; first compound 0.006325 µM): 0.262 | relative viability (NCI-H1915; first compound 0.02 µM): 0.179 | relative viability (LC-2-ad; first compound 0.0002 µM): 0.882 | relative viability (LC-2-ad; first compound 0.000632 µM): 0.494 | relative viability (LC-2-ad; first compound 0.002 µM): 0.441 | relative viability (LC-2-ad; first compound 0.006325 µM): 0.395 | relative viability (201T; first compound 0.0002 µM): 1.15 | relative viability (201T; first compound 0.000632 µM): 0.712 | relative viability (201T; first compound 0.002 µM): 0.473 | relative viability (201T; first compound 0.006325 µM): 0.29 | relative viability (201T; first compound 0.02 µM): 0.213
